Drawing on PubChem BioAssay AID256 (DTP/NCI, 2004), this text covers T/C for 20 compounds.

Structures are written as SMILES. Where “and” joins values, the source holds several entries; their conditions need not be identical. Identical values can stand only once. Toxic doses and inconclusive results are not listed.

In this assay the test system is CD2F1 mice, L1210 leukemia ip, survival T/C. Briefly: NCI In Vivo Anticancer Drug Screen. Data for tumor model L1210 Leukemia (intraperitoneal) in CD2F1 (CDF1) mice. Particulars: higher = longer survival. The procedure, abridged: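 Ratio T/C, where T is the treated-group value and C the vehicle-dosed control value, from mice implanted with a transplantable tumor.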

[1] abbreviates: endpoint: mean survival time, dose: 100.0 mg/kg/injection, schedule: Q04DX003 (ip), vehicle: saline with Tween-80.
Where [2] appears, read: endpoint: mean survival time, dose: 200.0 mg/kg/injection, schedule: Q04DX003 (ip), vehicle: saline with Tween-80.
The mark [3] stands for this setting: endpoint: mean survival time, dose: 200.0 mg/kg/injection, schedule: Q01DX009 (ip), vehicle: saline with Tween-80.
The mark [4] stands for this setting: endpoint: mean survival time, dose: 100.0 mg/kg/injection, schedule: Q04DX003 (ip), vehicle: Klucel (hydroxypropylcellulose) (HPC).
The mark [5] stands for this setting: endpoint: mean survival time, dose: 200.0 mg/kg/injection, schedule: Q04DX003 (ip), vehicle: Klucel (hydroxypropylcellulose) (HPC).

Consider `O=C(O)C1(C(=O)O)CCCCC1.[NH-]CC1(C[NH-])CCCCC1.[Pt+2]`, for which the T/C reads like this: (endpoint: mean survival time, dose: 30.0 mg/kg/injection, schedule: Q04DX003 (ip), vehicle: suspension in saline) 118 % of control; (endpoint: mean survival time, dose: 60.0 mg/kg/injection, schedule: Q04DX003 (ip), vehicle: suspension in saline) 118 % of control.
With `CC1CN1CC(O)C(O)CN1CC1C` (configuration not stated), the T/C (endpoint: mean survival time, dose: 2.5 mg/kg/injection, schedule: Q01DX009 (ip), vehicle: saline) was 115 % of control.
On to `O/N=C/c1ccc(O)cc1`, for which the T/C by setting is: (endpoint: mean survival time, dose: 50.0 mg/kg/injection, schedule: Q04DX003 (ip), vehicle: saline with Tween-80) 94 % of control; under setting [1], 91 % of control; under setting [2], 97 % of control.
Consider `O=c1[nH]cc(Cc2ccccc2)c(=S)[nH]1`, for which the T/C runs as follows: (endpoint: mean survival time, dose: 75.0 mg/kg/injection, schedule: Q01DX001 (ip), vehicle: saline with Tween-80) 107 % of control; (endpoint: mean survival time, dose: 150.0 mg/kg/injection, schedule: Q01DX001 (ip), vehicle: saline with Tween-80) 102 % of control; (endpoint: mean survival time, dose: 300.0 mg/kg/injection, schedule: Q01DX001 (ip), vehicle: saline with Tween-80) 91 % of control.
Regarding `COc1cc(OC)c(NC(=O)Nc2c(C)n(C)n(-c3ccccc3)c2=O)cc1Cl`, the T/C was 91 % of control (endpoint: mean survival time, dose: 12.5 mg/kg/injection, schedule: Q01DX009 (ip), vehicle: saline with Tween-80); 97 % of control (endpoint: mean survival time, dose: 25.0 mg/kg/injection, schedule: Q01DX009 (ip), vehicle: saline with Tween-80); 93 % of control and 97 % of control (endpoint: mean survival time, dose: 50.0 mg/kg/injection, schedule: Q01DX009 (ip), vehicle: saline with Tween-80); 89 % of control under setting [3].
On to `O=C1c2ccccc2C(=O)N1c1ccc(Cl)cc1`, for which the T/C (endpoint: mean survival time, dose: 100.0 mg/kg/injection, schedule: Q01DX001 (ip), vehicle: Klucel (hydroxypropylcellulose) (HPC)) was 92 % of control; the T/C (endpoint: mean survival time, dose: 200.0 mg/kg/injection, schedule: Q01DX001 (ip), vehicle: Klucel (hydroxypropylcellulose) (HPC)) is 96 % of control; the T/C (endpoint: mean survival time, dose: 400.0 mg/kg/injection, schedule: Q01DX001 (ip), vehicle: Klucel (hydroxypropylcellulose) (HPC)) was 107 % of control.
As for `O=[N+]([O-])c1cc(C2CCCCC2)c(O)c([N+](=O)[O-])c1`, the T/C (endpoint: mean survival time, dose: 5.0 mg/kg/injection, schedule: Q01DX009 (ip), vehicle: saline with Tween-80) is 98 % of control; the T/C (endpoint: mean survival time, dose: 10.0 mg/kg/injection, schedule: Q01DX009 (ip), vehicle: saline with Tween-80) is 93 % of control; the T/C (endpoint: mean survival time, dose: 20.0 mg/kg/injection, schedule: Q01DX009 (ip), vehicle: saline with Tween-80) is 89 % of control.
As for `CC(C)(C)SC1C(O)C(CO)OC1n1ccc(Nc2ccccc2)nc1=O` (configuration not stated), the T/C runs as follows: (endpoint: median survival time, dose: 12.5 mg/kg/injection, schedule: Q01DX005 (ip), vehicle: saline with Tween-80) 99 % of control; (endpoint: median survival time, dose: 25.0 mg/kg/injection, schedule: Q01DX005 (ip), vehicle: saline with Tween-80) 99 % of control; (endpoint: median survival time, dose: 50.0 mg/kg/injection, schedule: Q01DX005 (ip), vehicle: saline with Tween-80) 102 % of control; (endpoint: median survival time, dose: 100.0 mg/kg/injection, schedule: Q01DX005 (ip), vehicle: saline with Tween-80) 104 % of control; (endpoint: median survival time, dose: 200.0 mg/kg/injection, schedule: Q01DX005 (ip), vehicle: saline with Tween-80) 90 % of control.
As to `Cc1cc(N2C(=O)CCSC2=S)ccc1Cl`, the T/C runs as follows: (endpoint: mean survival time, dose: 12.5 mg/kg/injection, schedule: Q01DX009 (ip), vehicle: Klucel (hydroxypropylcellulose) (HPC)) 101 % of control and 105 % of control; (endpoint: mean survival time, dose: 25.0 mg/kg/injection, schedule: Q01DX009 (ip), vehicle: Klucel (hydroxypropylcellulose) (HPC)) 95 % of control and 103 % of control and 109 % of control; (endpoint: mean survival time, dose: 50.0 mg/kg/injection, schedule: Q01DX009 (ip), vehicle: Klucel (hydroxypropylcellulose) (HPC)) 113 % of control and 97 % of control; (endpoint: mean survival time, dose: 100.0 mg/kg/injection, schedule: Q01DX009 (ip), vehicle: Klucel (hydroxypropylcellulose) (HPC)) 122 % of control and 123 % of control and 97 % of control; (endpoint: mean survival time, dose: 200.0 mg/kg/injection, schedule: Q01DX009 (ip), vehicle: Klucel (hydroxypropylcellulose) (HPC)) 95 % of control and 107 % of control; (endpoint: mean survival time, dose: 400.0 mg/kg/injection, schedule: Q01DX009 (ip), vehicle: Klucel (hydroxypropylcellulose) (HPC)) 102 % of control.
Regarding `CC1OC2CC(O)C1(O)C1=C2C(O)=C(C(N)=O)C(=N)C1=O` (configuration not stated), the T/C was 101 % of control (endpoint: median survival time, dose: 0.31 mg/kg/injection, schedule: Q01DX005 (ip), vehicle: saline); 101 % of control (endpoint: median survival time, dose: 0.62 mg/kg/injection, schedule: Q01DX005 (ip), vehicle: saline); 101 % of control (endpoint: median survival time, dose: 1.25 mg/kg/injection, schedule: Q01DX005 (ip), vehicle: saline); 98 % of control (endpoint: median survival time, dose: 2.5 mg/kg/injection, schedule: Q01DX005 (ip), vehicle: saline); 108 % of control (endpoint: median survival time, dose: 5.0 mg/kg/injection, schedule: Q01DX005 (ip), vehicle: saline).
On to `COP(=O)(O)OCC1OC(n2cnc3c(N)ncnc32)C(O)C1O` (configuration not stated), for which the T/C was 96 % of control (endpoint: mean survival time, dose: 12.5 mg/kg/injection, schedule: Q01DX005 (ip), vehicle: distilled water + Tween-80); 102 % of control (endpoint: mean survival time, dose: 25.0 mg/kg/injection, schedule: Q01DX005 (ip), vehicle: distilled water + Tween-80); 106 % of control (endpoint: mean survival time, dose: 50.0 mg/kg/injection, schedule: Q01DX005 (ip), vehicle: distilled water + Tween-80); 100 % of control (endpoint: mean survival time, dose: 100.0 mg/kg/injection, schedule: Q01DX005 (ip), vehicle: distilled water + Tween-80); 106 % of control (endpoint: mean survival time, dose: 200.0 mg/kg/injection, schedule: Q01DX005 (ip), vehicle: distilled water + Tween-80).
Regarding `CC(=O)OC(c1ccccc1)C(OC(C)=O)c1ccccc1` (configuration not stated), the T/C was 104 % of control (endpoint: mean survival time, dose: 75.0 mg/kg/injection, schedule: Q01DX001 (ip), vehicle: other); 102 % of control (endpoint: mean survival time, dose: 150.0 mg/kg/injection, schedule: Q01DX001 (ip), vehicle: other); 88 % of control (endpoint: mean survival time, dose: 300.0 mg/kg/injection, schedule: Q01DX001 (ip), vehicle: other).
As to `CC1(c2ccc3ccccc3c2)OC(=O)c2ccccc21` (configuration not stated), the T/C (endpoint: median survival time, dose: 12.5 mg/kg/injection, schedule: Q04DX003 (ip), vehicle: saline with Tween-80) is 111 % of control; the T/C (endpoint: median survival time, dose: 25.0 mg/kg/injection, schedule: Q04DX003 (ip), vehicle: saline with Tween-80) was 100 % of control; the T/C (endpoint: median survival time, dose: 50.0 mg/kg/injection, schedule: Q04DX003 (ip), vehicle: saline with Tween-80) is 111 % of control; the T/C (endpoint: median survival time, dose: 100.0 mg/kg/injection, schedule: Q04DX003 (ip), vehicle: saline with Tween-80) was 88 % of control.
On to `CC(C)(CO)C(O)C(=O)NCCS(=O)(=O)c1ccc(F)cc1` (configuration not stated), for which the T/C (endpoint: mean survival time, dose: 100.0 mg/kg/injection, schedule: Q01DX001 (ip), vehicle: saline with Tween-80) is 105 % of control; the T/C (endpoint: mean survival time, dose: 100.0 mg/kg/injection, schedule: Q01DX009 (ip), vehicle: saline with Tween-80) was 89 % of control; the T/C (endpoint: mean survival time, dose: 200.0 mg/kg/injection, schedule: Q01DX001 (ip), vehicle: saline with Tween-80) was 95 % of control; the T/C under setting [3] is 89 % of control; the T/C (endpoint: mean survival time, dose: 400.0 mg/kg/injection, schedule: Q01DX001 (ip), vehicle: saline with Tween-80) is 100 % of control.
Consider `O=C(O)C(O)C(O)C(O)C(O)C(O)CO` (configuration not stated), for which the T/C (endpoint: mean survival time, dose: 100.0 mg/kg/injection, schedule: Q01DX009 (ip), vehicle: saline) is 98 % of control; the T/C (endpoint: mean survival time, dose: 200.0 mg/kg/injection, schedule: Q01DX009 (ip), vehicle: saline) was 98 % of control; the T/C (endpoint: mean survival time, dose: 400.0 mg/kg/injection, schedule: Q01DX009 (ip), vehicle: saline) was 97 % of control.
On to `O=C1OC(=O)C2C1CC1C(=O)OC(=O)C12` (configuration not stated), for which the T/C is 97 % of control (endpoint: mean survival time, dose: 50.0 mg/kg/injection, schedule: Q04DX003 (ip), vehicle: Klucel (hydroxypropylcellulose) (HPC)); 100 % of control under setting [4]; 96 % of control under setting [5].
For the compound `N#CC1c2ccccc2C=CN1C(=O)OCC(Cl)(Cl)Cl` (configuration not stated), the T/C reads like this: under setting [4], 102 % of control; under setting [5], 102 % of control; (endpoint: mean survival time, dose: 400.0 mg/kg/injection, schedule: Q04DX003 (ip), vehicle: Klucel (hydroxypropylcellulose) (HPC)) 103 % of control.
On to `Fc1ccc2ccnnc2c1`, for which the T/C is, setting by setting: (endpoint: mean survival time, dose: 100.0 mg/kg/injection, schedule: Q01DX001 (ip), vehicle: other) 103 % of control; (endpoint: mean survival time, dose: 200.0 mg/kg/injection, schedule: Q01DX001 (ip), vehicle: other) 95 % of control.
With `O=C(Nc1ccc2c3c(cccc13)C=C2)c1ccccc1`, the T/C is 96 % of control under setting [1]; 93 % of control under setting [2]; 93 % of control (endpoint: mean survival time, dose: 400.0 mg/kg/injection, schedule: Q04DX003 (ip), vehicle: saline with Tween-80).
With `NNc1ncnc2c(C3OC(CO)C(O)C3O)[nH]nc12` (configuration not stated), the T/C (endpoint: mean survival time, dose: 150.0 mg/kg/injection, schedule: Q01DX009 (ip), vehicle: saline sonified) was 155 % of control.
